Numbered stars: 1 amine (or outer) side, 2 acyl side, 3 side chain; on linkers, the order of the positions; unused ones are H or OH. Square brackets hold non-standard residues; d marks the D form. Side chains are listed from the residue outwards. Ends that are not written are not given here. Peptide text beside a SMILES is read from it. * marks the point of attachment. C18 = C18 fatty acid (C16-C22 fatty acids conjugated via γGlu/8-amino-3,6-dioxaoctanoic acid spacers); Biotin = O=C1N[C@H]2[C@H](CS[C@H]2CCCCC(=O)*)N1; C18 diacid = O=C(O)CCCCCCCCCCCCCCCCC(=O)*; γGlu = O=C(O)[C@H](CCC(=O)[*:2])N[*:1]; AEEA = NCCOCCOCC(=O)O; Aib = CC(C)(N)C(=O)O

Series [1] can be described thus: Body weight loss in normal C57BL/6 mice, subcutaneous dosing. Particulars: normal mice; 20 nmol/kg QD; Weight loss at 48 hr. Format: in vivo.
The nature of series [2]: In vivo efficacy in mAMLN (NASH) mice, 2 weeks. Particulars: for blood glucose, in words / body weight, in words: 20 nmol/kg s.c. Q2D, 2 weeks; for hepatic triglyceride content, in words / liver weight, in words / mRNA levels of TGF-β1 (inflammation marker) and ACTA2 (fibrosis marker), in words: end of treatment.
A short description of series [3]: Intestinal absorption / PK after intraduodenal administration of oral formulation in rats, serum LC-MS/MS. Particulars: rat, in vivo, 300 nmol/kg. On the procedure: This study was conducted to evaluate the intestinal absorption of peptides following enteral administration of oral pharmaceutical formulations. The pharmaceutical formulation was administered in a form of suspensions by intraduodenal (ID) injection in rats. SEQ ID_87, 89 and 90 was accurately weighed and dissolved in 10 mM PBS containing polysorbate 80 (pH 7.4, vehicle I). The mixture was vortexed for 5 min to get a clear solution. Then, 2.5 mL of vehicle was added to the mixture and vortexed for 30 min to get homogenous opaque suspension. The composition of Vehicle II was sodium chenodeoxycholate, and propyl gallate in polysorbate 80 in PBS. The animals were not fasted prior to dosing. 0.2˜ 0.4 mL of whole blood was taken from vein at each time point (0, 0.167, 0.5, 1, 2, 4, 8, 24, and 48 hrs after IV or ID administration). The collected whole blood was incubated at room temperature for 20 min and tubes were centrifugated at 13,000 rpm for 10 min at 4° C. The resulting serum 0.1˜ 0.2 mL was transferred into the tube and stored at −70° C. until analysis. The concentrations of peptides in serum were determined by LC-MS/MS analysis. PK parameters were analyzed by non-compartmental analysis using Phoenix WinNonlin 5.0.1. software (Pharsight Corporation, Mountain View, CA, USA).

Turning to “YAibQGT FTSDY SK*YLD YMMARDFVQWLIEGGPSSGAPPPS (Y[Aib]QGTFTSDYSK([AEEA-AEEA-γGlu-C18])YLDYMMARDFVQWLIEGGPSSGAPPPS-NH2) [5-1D, K* = lysine lipidated with 2OEG-γGlu-C18]”, the “Weight loss (%)” value in series [1] is 16.7 ± 1.3%. Further, in series [2], the “blood glucose, in words” value is recorded as “reduce blood glucose”; the “body weight, in words” value was “reduce body weight”; the “hepatic triglyceride content, in words” value is reported as “reduce hepatic triglyceride content”; the “liver weight, in words” value is reported as “reduce liver weight”. Further, the “mRNA levels of TGF-β1 (inflammation marker) and ACTA2 (fibrosis marker), in words” value (“mRNA levels of TGF-β1” below) in series [2] is “reduce both TGF-β1 and ACTA2”.

“HAibQGT FTSDY SK*YLD YMMARDFVQWLIEGGPSSGAPPPS (H[Aib]QGTFTSDYSK([AEEA-AEEA-γGlu-C18])YLDYMMARDFVQWLIEGGPSSGAPPPS-NH2) [5D, K* = lysine lipidated with 2OEG-γGlu-C18]”: the “Weight loss (%)” value in series [1] is given as 19.4 ± 2.2%. Further, in series [2], the “blood glucose, in words” value is “reduce blood glucose”; the “body weight, in words” value was “reduce body weight”; the “hepatic triglyceride content, in words” value is recorded as “reduce hepatic triglyceride content”; the “liver weight, in words” value is reported as “reduce liver weight”. Further, the “mRNA levels of TGF-β1” value in series [2] was “reduce both TGF-β1 and ACTA2”.

The term AUC(0-inf) denotes total exposure, with the tail of the curve extrapolated. A low value points to less exposure. The Cmax is the maximum level reached in the sampled fluid or tissue. As usually defined, the MRT inf is a mean duration of stay, worked out from the concentration-time curve. What is called Tmax is the time at which the peak concentration occurs. As usually defined, the half-life is the time needed for the level to fall by half in the phase considered. Lower therefore signals fast loss. For `CSCC[C@H](NC(=O)[C@H](Cc1ccc(O)cc1)NC(=O)[C@H](CC(=O)O)NC(=O)[C@H](CC(C)C)NC(=O)[C@H](CC(C)C)NC(=O)[C@H](CCCCNC(=O)COCCOCCNC(=O)COCCOCCNC(=O)CC[C@H](NC(=O)CCCCCCCCCCCCCCCCC(=O)O)C(=O)O)NC(=O)[C@H](CO)NC(=O)[C@H](Cc1ccc(O)cc1)NC(=O)[C@H](CC(=O)O)NC(=O)[C@H](CO)NC(=O)[C@@H](NC(=O)[C@H](Cc1ccccc1)NC(=O)[C@@H](NC(=O)CNC(=O)[C@H](CCC(N)=O)NC(=O)C(C)(C)NC(=O)[C@@H](N)Cc1ccc(O)cc1)[C@@H](C)O)[C@@H](C)O)C(=O)N[C@@H](CCSC)C(=O)N[C@@H](CCC(N)=O)C(=O)N[C@@H](CCCNC(=N)N)C(=O)N[C@@H](CC(=O)O)C(=O)N[C@@H](Cc1ccccc1)C(=O)N[C@H](C(=O)N[C@@H](CCC(N)=O)C(=O)N[C@@H](Cc1c[nH]c2ccccc12)C(=O)N[C@@H](CC(C)C)C(=O)N[C@@H](CC(C)C)C(=O)N[C@@H](CCC(=O)O)C(=O)NCC(=O)NCC(=O)N1CCC[C@H]1C(=O)N[C@@H](CO)C(=O)N[C@@H](CO)C(=O)NCC(=O)N[C@@H](C)C(=O)N1CCC[C@H]1C(=O)N1CCC[C@H]1C(=O)N1CCC[C@H]1C(=O)N[C@@H](CO)C(=O)N[C@@H](CCCCNC(=O)CCCC[C@@H]1SC[C@@H]2NC(=O)N[C@@H]21)C(N)=O)C(C)C` [SEQ ID_90] (H-Y[Aib]QGTFTSDYSK([AEEA-AEEA-γGlu-C18 diacid])LLDYMMQRDFVQWLLEGGPSSGAPPPSK(Biotin)-NH2; N-terminus and C-terminus assumed), in series [3], the area under the curve AUC(0-inf) came out at 2490 ng·h/mL, the Cmax came out at 282 ± 88.5 ng/mL, the MRT inf is 11.8 ± 1.48 h and the Tmax is 0.3 ± 0.18 h. This compound also showed a half-life in series [3] of 8.37 ± 0.92 h.

With “YAibQGT FTSDY SK*LLD YMMQRDFVQWLLEGGPSSGAPPPS (Y[Aib]QGTFTSDYSK([AEEA-AEEA-γGlu-C18])LLDYMMQRDFVQWLLEGGPSSGAPPPS-NH2) [5-3D, K* = lysine lipidated with 2OEG-γGlu-C18]”, the “Weight loss (%)” value in series [1] is 7.6 ± 1.3%. Also, in series [2], the “blood glucose, in words” value is recorded as “reduce blood glucose”; the “body weight, in words” value is “reduce body weight”; the “hepatic triglyceride content, in words” value is reported as “reduce hepatic triglyceride content”; the “liver weight, in words” value was “reduce liver weight”. Besides, the “mRNA levels of TGF-β1” value in series [2] was “reduce both TGF-β1 and ACTA2”.

The values above are taken from patent publication US20250296960A1, “PEPTIDE COMPOSITIONS AND METHODS OF USE THEREOF” (priority 2022, published 2025).
